pIC50: −log10 of the molar value.

From patent publication US9156791B2, “Pyrazole compounds acting against allergic, immune and inflammatory conditions” (Glaxo Group Limited, priority 2010, dated 2015) come the findings set out here.

Series [1] relates to ICRAC current. Nature of the series: ICRAC assay: thapsigargin-induced calcium influx in Jurkat E6-1 cells (Fluo-4, FLIPR). Particulars: Homo sapiens, thapsigargin 5 μM, calcium add-back, inhibition of maximal fluorescence signal. Format: cell-based. How it is done: This ICRAC assay uses the SERCA inhibitor thapsigargin to produce calcium depletion and activate an ICRAC current. […] Changes in intracellular calcium levels are determined by the inclusion of the calcium sensitive fluorescent dye Fluo-4 and the use of the FLIPR detection system. Inhibitors of ICRAC would be expected to decrease the calcium influx upon calcium add-back, thus reducing fluorescent signal.
Jurkat E6-1 is an established immortalised T lymphocyte cell line previously shown to express a functional ICRAC current. Jurkat cells grow in suspension, are cultured in DMEM+10% FBS, maintained in T175 flasks at 37° C./5% CO2, and are subcultured twice a week with either 1:10-1:20 splits. 1 confluent T175 yields 100 ml of approximately 2×10^6 cells/ml.
Loading buffer contains; NaCl 145 mM, KCl 2.5 mM, HEPES 10 mM, Glucose 10 mM, MgCl2 1.2 mM, made up with water, then pH adjusted to 7.4 using NaOH 1 M. Finally Fluo-4AM & brilliant black are added to give a final assay concentration of 2 μM and 250 μM respectively. […]
The required seeding density for a 384 plate is 20,000 cells per well. […] Plates are then transferred to the FLIPR which initially measures baseline fluorescence, followed by any increase in fluorescence evoked by the online addition of a 6 mM (1.2 mM FAC) calcium solution. […]

Series [2] can be described thus: In vitro microsomal clearance, dog. It is filed as in vitro ADME. Conditions: Dog (Beagle).
Series [3] is described as follows: In vitro microsomal clearance, human. It is filed as in vitro ADME.
Series [4] can be described thus: In vitro microsomal clearance, rat. It is filed as in vitro ADME.

A word on the pIC50: it is −log10 of the IC50, conventionally taken in molar units. Take `O=C(Nc1cnn(Cc2c(F)cccc2C(F)(F)F)c1)c1c(F)cccc1F` [Example 1, 2,6-Difluoro-N-(1-{[2-fluoro-6-(trifluoromethyl)phenyl]methyl}-1H-pyrazol-4-yl)benzamide]: in series [1], the pIC50 is 5.50. Besides, the CIint was found to be 0.98 mL/min g liver in series [2], 0.80 mL/min g liver in series [3], 1.67 mL/min g liver in series [4] (Rat (CD)) and 2.05 mL/min g liver in series [4] (Rat (Wistar Han)).
Turning to `[2H]C([2H])(c1c(F)cccc1C(F)(F)F)n1cc(NC(=O)c2c(F)cccc2F)cn1` [Example 3, 2,6-Difluoro-N-(1-(2-fluoro-6-(trifluoromethyl)-d2-benzyl)-1H-pyrazol-4-yl)benzamide], the CIint is 0.80 mL/min g liver in series [2], <0.5 mL/min g liver in series [3], 0.95 mL/min g liver in series [4] (Rat (CD)) and 1.16 mL/min g liver in series [4] (Rat (Wistar Han)).
